Laboratory results as given in ChEMBL document CHEMBL1201862, “PubChem BioAssay data set” (2004).
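Cultured in 96-well plates, cells were exposed to test compound for 48 hours across five concentrations. The concentration for 50% growth inhibition is given as GI50.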 Activity calls are given as the source filed them. Cut-off read from the data, not from the text of the source: active = GI50 up to about 1.1 µM and inactive = higher.

How the values were obtained:
Assay in all cases: NCI-60 cell line screen, 48 h
HOP-18 = test system: HOP-18
DMS-273 = test system: DMS-273
KM-20L2 = test system: KM-20L2
DLD-1 = test system: DLD-1
M19-MEL = test system: M19-MEL
SNB-78 = test system: SNB-78
RXF 631 = test system: RXF 631
DMS-114 = test system: DMS-114
XF498 = test system: XF498

Row | Compound | GI50 (HOP-18) | GI50 (DMS-273) | GI50 (KM-20L2) | GI50 (DLD-1) | GI50 (M19-MEL) | GI50 (SNB-78) | GI50 (RXF 631) | GI50 (DMS-114) | GI50 (XF498)
1 | O=C1c2ccccc2C(=O)c2c1ccc1conc21 | 13.4 µM (inactive) | 3.44 µM (inactive) | 15.4 µM (inactive) | 2.55 µM (inactive) | 1.32 µM (inactive) | 2.84 µM (inactive) | 2.85 µM (inactive) | 1.83 µM (inactive) | 
2 | O=C(OCCCl)C1OC(n2cc(F)c(=O)[nH]c2=O)CC1O (stereo not drawn) | > 100 µM (inactive) |  | > 100 µM (inactive) | > 100 µM (inactive) | > 100 µM (inactive) | > 100 µM (inactive) |  | > 100 µM (inactive) | > 100 µM (inactive)
3 | COc1cc(Cl)cc(O)c(=O)c1OC | 71.6 µM (inactive) | 32.2 µM (inactive) | 37.9 µM (inactive) | 37.3 µM (inactive) | 45.8 µM (inactive) | 16.9 µM (inactive) |  | 24 µM (inactive) | > 59.8 µM (inactive)
4 | N#CCCN(CCC#N)c1ccc(/C=C2\N=C(CN3C(=O)c4ccccc4C3=O)OC2=O)cc1 |  | > 100 µM (inactive) | > 100 µM (inactive) |  | > 100 µM (inactive) |  | > 100 µM (inactive) | > 100 µM (inactive) | > 100 µM (inactive)
5 | COC(=O)C1CC(c2ccc(Cl)cc2)=NO1 (stereo not drawn) | > 100 µM (inactive) | > 100 µM (inactive) | > 100 µM (inactive) | > 100 µM (inactive) | > 100 µM (inactive) | > 100 µM (inactive) |  | > 100 µM (inactive) | 
6 | Cc1ccc(NCC(=O)N2CC(=O)Nc3ccccc32)cc1 | > 100 µM (inactive) | > 100 µM (inactive) | > 100 µM (inactive) | > 100 µM (inactive) | > 100 µM (inactive) | > 100 µM (inactive) |  | > 100 µM (inactive) | 75.7 µM (inactive)
7 | Cc1cc(C)nc(NS(=O)(=O)c2ccc(Nc3c4ccc(Cl)cc4nc4c(C(=O)NCCN(C)C)cccc34)cc2)n1 |  | > 100 µM (inactive) | > 100 µM (inactive) | > 100 µM (inactive) | > 100 µM (inactive) | > 100 µM (inactive) | > 100 µM (inactive) | > 100 µM (inactive) | > 100 µM (inactive)
8 | CN(C)CCNC(=O)c1ccc(C(=O)NCCN(C)C)c2nc3ccccc3cc12 | 1.95 µM (inactive) | 0.538 µM (active) | 0.568 µM (active) | 0.516 µM (active) | 0.8 µM (active) | 1.05 µM (active) | 1 µM (active) | 0.553 µM (active) | 
9 | NCCCCCS(=O)(=O)O | > 100 µM (inactive) | > 100 µM (inactive) | > 100 µM (inactive) | > 100 µM (inactive) | > 100 µM (inactive) | > 100 µM (inactive) | > 100 µM (inactive) | > 100 µM (inactive) | 
10 | COc1ccc(/C=C/c2onc3c(=O)n(C)nc(-c4ccccc4)c23)cc1 | > 100 µM (inactive) | > 100 µM (inactive) | > 100 µM (inactive) | > 100 µM (inactive) | > 100 µM (inactive) |  |  | > 100 µM (inactive) | 37 µM (inactive)
11 | CCOC(=O)C1CC/C(=C(/C#N)C(=O)OC)N1 (stereo not drawn) |  | > 100 µM (inactive) | > 100 µM (inactive) | > 100 µM (inactive) | > 100 µM (inactive) | > 100 µM (inactive) |  | > 100 µM (inactive) | > 100 µM (inactive)
12 | Cc1ccc(C2CC(c3ccco3)=NN2c2ccccc2)o1 (stereo not drawn) |  | > 100 µM (inactive) | > 100 µM (inactive) |  | > 100 µM (inactive) | > 100 µM (inactive) |  | > 100 µM (inactive) | > 100 µM (inactive)
13 | O=C1C2c3[nH]c4ccccc4c3C3CCCCCC3C2C(=O)N1c1ccccc1 (stereo not drawn) | 19.5 µM (inactive) | 37.8 µM (inactive) | > 100 µM (inactive) | 58.2 µM (inactive) | > 58.1 µM (inactive) | 11.7 µM (inactive) |  | > 49.9 µM (inactive) | 22.9 µM (inactive)
14 | COCc1c(CO)cnc(C)c1OC1OC(CO)C(O)C(O)C1O (stereo not drawn) |  | > 100 µM (inactive) | > 100 µM (inactive) | > 100 µM (inactive) | > 100 µM (inactive) |  |  | > 100 µM (inactive) | > 100 µM (inactive)
15 | COc1ccc2cccc(C(=N)c3ccc(C)c4c3CCC4)c2c1 | 0.895 µM (active) | 9.4 µM (inactive) | 5.82 µM (inactive) |  | 9.62 µM (inactive) |  | 1.37 µM (inactive) | 7.08 µM (inactive) | 
16 | Cn1c2ccccc2c(=O)c2c([N+](=O)[O-])ccc(NCCN)c21 | 13.3 µM (inactive) | 3.86 µM (inactive) | 10.1 µM (inactive) |  | 13 µM (inactive) | 14.5 µM (inactive) |  | 11.5 µM (inactive) | 15.1 µM (inactive)
17 | CCCNCC(=O)O[C@]1(CC)C(=O)OCc2c1cc1n(c2=O)Cc2cc3ccccc3nc2-1 | 0.123 µM (active) | < 0.01 µM (active) | 0.416 µM (active) | 2.07 µM (inactive) | 0.194 µM (active) |  |  | 0.0187 µM (active) | < 0.01 µM (active)
18 | CC(=O)OCc1cc(OC(C)=O)cnc1COC(C)=O | > 100 µM (inactive) | > 100 µM (inactive) | > 100 µM (inactive) | > 100 µM (inactive) | > 100 µM (inactive) |  | > 100 µM (inactive) | > 100 µM (inactive) | > 100 µM (inactive)
19 | CC1(C)C(=O)/C=C\C(=O)C(C)(C)C2=CC=C(O2)C(C)(C)C(=O)/C=C\C(=O)C(C)(C)C2=CC=C1O2 | > 100 µM (inactive) | > 100 µM (inactive) | > 100 µM (inactive) |  | > 100 µM (inactive) | > 100 µM (inactive) |  |  | > 100 µM (inactive)
20 | C/N=C(\NC(=S)N(C)C)N(C)C | > 100 µM (inactive) | > 100 µM (inactive) | > 100 µM (inactive) | > 100 µM (inactive) | > 100 µM (inactive) | > 100 µM (inactive) | > 100 µM (inactive) | > 100 µM (inactive) | > 100 µM (inactive)
21 | COC1=CC(=O)C2C(C1=O)C(c1ccc(OC)c(OC)c1)[C@H]2C (stereo partly drawn) | 20.7 µM (inactive) | 23.7 µM (inactive) | 68.9 µM (inactive) | 17.1 µM (inactive) | 20.8 µM (inactive) | > 100 µM (inactive) | 16.4 µM (inactive) | 19.5 µM (inactive) | 16.2 µM (inactive)
22 | CCCCCCCCCCCC[N+]12CC[N+](CCN)(CC1)CC2 | 75.3 µM (inactive) | 14.8 µM (inactive) | 62.4 µM (inactive) | 82.8 µM (inactive) | > 100 µM (inactive) | 77.8 µM (inactive) | > 100 µM (inactive) | 34.1 µM (inactive) | > 100 µM (inactive)
23 | CCOc1ccc(/C=C/c2cc(OC)c(OC)c(OC)c2)cc1 | > 75.2 µM (inactive) | 0.548 µM (active) | 0.82 µM (active) | 1.9 µM (inactive) | 3.03 µM (inactive) | 0.341 µM (active) | 0.879 µM (active) | 1.36 µM (inactive) | 4.4 µM (inactive)
24 | COC(=O)c1cc(O)ccc1O [METHYL 2,5-DIHYDROXYBENZOATE] |  | > 100 µM (inactive) |  |  | > 100 µM (inactive) | > 100 µM (inactive) | > 100 µM (inactive) | > 100 µM (inactive) | > 100 µM (inactive)
